Test results from patent publication US20250346643A1, “TROPOMYOSIN KINASE RECEPTOR (TRK) LIGANDS AS THERAPEUTICS TO SUPPORT LIVER REGENERATION” (Vanderbilt University, priority 2024, published 2025).

Assays:
[1] = test system: mTORC1; test: Immunoblotting of HDOs for P-S6RP and P-P70S6K (mTORC1 activation); type: cell-based, human
Experimental: (§1) Human ductal organoids. The normal human liver tissue was obtained through the Cooperative Human Tissue Network (CHTN) at Vanderbilt University Medical Center. The liver was cut into very small pieces in liver digestion medium (Gibco, Waltham, MA; 17703-034). The cell suspension was filtered through a 100-μm cell strainer. The flow through was then centrifuged for 2 min at 100 g, 4° C., and the cell pellet resuspended in ice-cold DMEM (Gibco, Waltham, MA; 11885-084, supplemented by 5% FBS) and centrifuged for 2 min at 300 g. The cell pellet was gently resuspended in Matrigel® (Corning, Corning, NY; 356231) and a […] dome plated in a 24-well plate. The plate was incubated for 10-15 min at 37° C. After solidifying, complete HepatiCult™ Organoid Initiation Medium (OIM) (STEMCELL Technologies, Vancouver, Canada; 100-0384) was added. For passaging, the Matrigel dome was dissociated using TrypLE (Thermo Fisher Scientific, Waltham, MA; 12604013) and incubated at 37° C. for 5 mins. Organoids were washed by resuspending in advanced DMEM/F12 and consecutive resuspension of the organoid pellet. Organoids were resuspended at a 1:10 dilution in Matrigel® and cultured in complete HepatiCult™ Organoid Growth Medium (OGM) (STEMCELL Technologies, Vancouver, Canada; 100-0385) for organoid expansion. For hepatocytic differentiation of hepatic ductal organoids, culture medium was changed to complete HepatiCult™ Organoid Differentiation Medium (ODM) (STEMCELL Technologies, 100-0383) 4 days after passaging. Vehicle, NTF3, BDNF, HGF (20 ng/ml final concentration) or Taletrectinib (Fisher Scientific, Waltham, MA; 502030245, final concentration 10 nM) or torin2 (Fisher Scientific, Waltham, MA; s2817, final concentration 25 nM) were diluted in William's E (without L-glutamine) and added to organoids.
Immunoblotting. HDOs and mpPHH were homogenized in RIPA buffer containing proteinase inhibitors (Roche, Basel, Switzerland; cOmplete™ Mini protease inhibitor, 2 tab/10 ml buffer) and 1×HALT phosphatase inhibitors (Thermo Fisher Scientific, Waltham, MA; catalog no. 78428). Lysates were sonicated and then centrifuged for 10 min at 18,800 g. Protein concentration of supernatants was determined by Direct Detect Spectrophotometer (MilliporeSigma, Burlington, MA). HDOs were treated with growth factors as described above. Lyophilized NTF3 was solubilized with sterile-filtered PBS supplemented with 0.1% BSA, aliquoted, and stored at −80° C. until use. […] HDOs and mpPHH were collected on ice in PBS and centrifuged for 10 s, and the cell pellet was homogenized in RIPA buffer containing inhibitors (Roche, Basel, Switzerland; cOmplete™ Mini protease inhibitor, 1×HALT phosphatase inhibitors, Thermo Fisher Scientific, Waltham, MA; catalog no. 78428). Cell lysates were sonicated and centrifuged for 10 min at 18,800 g. The protein concentration of supernatants was determined by a Direct Detect® spectrophotometer (MilliporeSigma, Burlington, MA). For immunoblot analysis, 10 to 50 μg of protein diluted in […] sample buffer (Invitrogen, Waltham, MA) were analyzed per SDS-polyacrylamide gel electrophoresis (NuPAGE™, Invitrogen, Waltham, MA) using Mops buffer or MES buffer (Invitrogen, Waltham, MA). […] Semi-quantitative band densitometry was performed using ImageJ software (version 1.53).

[2] = test system: hepatocytic differentiated human ductal organoids; test: EdU incorporation in hepatocytic differentiated human ductal organoids (HDO); type: cell-based; details: co-incubation with taletrectinib 10 nM (FIG. 19C-D)
Experimental: as §1
EdU incorporation and imaging in HDO and mpPHH. A chamber slide was pre-chilled on ice and coated with Matrigel®. Chamber slide was then incubated for 3 min at 37° C. to solidify and organoids plated in 0.02% Matrigel®/complete media into coated chamber slides. Organoids were grown in complete organoid growth media (OGM) for approximately 4 days followed by incubation in organoid differentiation media (ODM) for another 4 days. Organoids were changed to William's E medium 1 day prior to experiment. Vehicle or NTF3, BDNF, HGF (20 ng/ml final concentration each) or Taletrectinib (Fisher Scientific, Waltham, MA; 502030245, final concentration 10 nM) were diluted in William's E (without L-glutamine) and added to organoids. CLICK-iT™ EdU (EdU final concentration […] incubated together with the vehicle, NTF3, BDNF or HGF). After 6 hours, organoids were fixed with 4% paraformaldehyde and permeabilized with 0.5% Triton-X 100. Further processing was performed according to CLICK-ITT EdU manufacturer's instructions. mpPHHs were seeded on collagen coated chamber slides and grown in complete hepatocyte medium (Lonza, Basel, Switzerland). Prior to EdU incorporation assays, mpPHHs were cultured in William's E medium. Vehicle or NTF3, BDNF, HGF (20 ng/ml final concentration each) or Taletrectinib (Fisher Scientific, Waltham, MA; 502030245, final concentration 10 nM) were diluted in William's E (without L-glutamine) and added to mpPHHs. Organoids were imaged in PBS in chamber slides, mpHHs were mounted with fluoromount. Five to fifteen images of random high-power fields were obtained per experiment per treatment and EdU+/Hoechst 33342+ nuclei versus all Hoechst 33342+ nuclei quantified.

[3] = test system: primary mouse hepatocytes; test: Cell proliferation assay (CellTiter-Glo) in primary mouse hepatocytes; type: cell-based
Experimental: Primary hepatocyte isolation. Pdgfrb-GFP-negative or H-2Kd mice older than 4 months were anesthetized and cannulated via the portal vein. Livers were perfused with about 25 ml of pre-warmed Liver Perfusion Medium (Gibco, Waltham, MA; 17707-038) followed by about 50 ml Liver Digestion Medium (Gibco, Waltham, MA; 17703-034). Liver capsule was gently teased apart with tweezers and hepatocytes released. Cells were taken up in Hepatocyte Wash Buffer (Gibco, Waltham, MA; 17704-024) and filtered through 100 μm mesh. Cells were then centrifuged for 2 min at 100 g, 4° C. and cell pellet resuspended in ice cold 10 ml DMEM (Gibco, Waltham, MA; 11885-084)/5% FBS. 10 ml of ice cold 100% Percoll®/PBS (GE HealthCare, Chicago, IL; GE17-0891-01) was added for gradient purification and cells centrifuged for 10 min at 200 g, 4° C. Cell pellet was resuspended with 20 ml DMEM/5% FBS and centrifuged for 2 min at 100 g, 4° C. 1-2×10^3 hepatocytes were plated on collagen-coated 96-well plates in DMEM/5% FBS/Pen/Strep. Rat tail collagen I (Gibco, Waltham, MA; A1048301) was used for coating. Cell culture media was changed 3 hours after plating with either serum-free William's E media (Gibco, Waltham, MA) containing Pen/Strep (Gibco, Waltham, MA) or DMEM/5% FBS/Pen/Strep. NTF3 (STEMCELL technologies, Vancouver, Canada) was added 1 day after plating at a final concentration of 20 ng/ml and primary hepatocytes cultured for 3 days with NTF3 until analysis.
Cell proliferation assays. Primary mouse hepatocytes, HepG2 or AML 12 cells were grown in opaque-walled 96-well plates. NTF3 (final concentration 20 ng/ml) (STEMCELL Technologies, Vancouver, Canada; cat. 78074) and/or Loxo-195 (final concentration 5 nM) (Selleckchem, Houston, TX; S8636) were added into complete growth media without L-glutamine. Primary mouse hepatocytes were also grown in serum-free William's E media without supplements. Cells were analyzed by CellTiter-Glo® (Promega G7570, Madison, WI) which detects the number of viable cells on day 0 to day 5 by on detection systems GloMax® (Promega) or Bioteck Synergy H1 (Agilent, Santa Clara, CA). Mouse recombinant HGF (Abcam, Cambridge, UK; ab281797) was added to cell culture media at a final concentration 5 ng/ml. TRKB inhibitor ANA-12 (Selleckchem, Houston, TX; S7745) was diluted in DMSO (10 mM stock solution) and added to cell culture media at a final concentration of 10 nM.
Primary mouse hepatocyte isolation. Mice were anesthetized and cannulated via the portal vein. Livers were perfused with ˜25 ml of prewarmed liver perfusion medium (Gibco, Waltham, MA; 17707-038) followed by ˜50 ml of liver digestion medium (Gibco, Waltham, MA; 17703-034). The liver capsule was gently teased apart with tweezers, and hepatocytes were released. Cells were taken up in Hepatocyte Wash Buffer (Gibco, Waltham, MA; 17704-024) and filtered through a 100-μm mesh. Cells were then centrifuged for 2 min at 100 g, 4° C., and the cell pellet was resuspended in 10 ml of ice-cold DMEM (Gibco, Waltham, MA; 11885-084)/5% FBS. […] of ice-cold 100% Percoll®/PBS (GE HealthCare, Chicago, IL; GE17-0891-01) were added for gradient purification, and cells were centrifuged for 10 min at 200 g, 4° C. The cell pellet was resuspended with 20 ml of DMEM/5% FBS and centrifuged for 2 min at 100 g, 4° C. A total of 1×10^3 to 2×10^3 hepatocytes were plated on collagen-coated 96-well plates in DMEM/5% FBS/Pen/Strep. Rat tail collagen I (Gibco, Waltham, MA; A1048301) was used for coating. Cell culture media were changed 3 hours after plating with either serum-free William's E media (Gibco, Waltham, MA) containing Pen/Strep (Gibco, Waltham, MA) or DMEM/5% FBS/Pen/Strep. […]

Molecule: insulin: a known activator of mTORC1
- phosphorylation of P-p70S6 kinase and P-S6 ribosomal protein (S6RP) ([1]; HDO, serum free and glutamine free William's E medium (FIG. 20A-C)): significantly increased phosphorylation

Molecule: C[C@@H](N)COc1ccc(-c2cnc3ccc(N[C@H](C)c4cccc(F)c4)nn23)cc1 [taletrectinib, reference compound]
- effect on NTF3-induced increase of EdU+ cells [2]: decreased

Molecule: NC(=O)CC[C@H](N)C(=O)O [glutamine]
- phosphorylated S6rp (Ser240/244) ([1]; HDOs cultured in glutamine free media, coincubation (FIG. 18G), Torin2 25 nM): decreased phosphorylated S6rp

Molecule: CC(=O)NCCc1c[nH]c2ccc(O)cc12 [NAS, N-Acetyl-5-hydroxytryptamine, reference compound]
- cell proliferation, comparison of NTF3, HGF, BDNF and NAS ([3]; BDNF and HGF 20 ng/ml, NAS 500 nM (FIG. 16E)): induce proliferation to a similar extent

Molecule: O=C(Nc1ccccc1C(=O)NC1CCCCNC1=O)c1cc2ccccc2s1 (stereo not drawn) [ANA-12, reference compound]
- inhibition of NTF3-induced cell proliferation ([3]; ANA-12 10 nM, NTF3 20 ng/ml, serum-free medium (FIG. 12D)): significantly inhibited
- effect on BDNF-induced proliferation ([3]; co-incubation with ANA-12 10 nM (FIG. 16C)): inhibited
